Values quoted from earlier work, collected in patent publication US7799760B2 (Centro de Ingenieria Genetica y Biotecnologia, priority 2001, dated 2010).

System: chronic neuropathic diabetic ulcers

Substance: Becaplermin
- rate of recurrence (in the third month): about 30%
- efficacy (multicenter, controlled, randomized clinical trial in the USA, neuropathic foot ulcers with normal arterial blood supply, topical gel): 50%
